Like-named read-outs stand apart in the source and are kept apart here. One block for each compound: values may come before it.
Assays:
rats = conditions: dose of 633 mg/kg/day; cited from earlier work
[1] = Storage stability under long-term, accelerated aging and stressed conditions; format: physicochemical; conditions: 25° C./60% RH exposed; 40° C./75% RH exposed; 60° C./75% RH closed; 2 to 4 weeks
Water-solubility test = format: physicochemical; conditions: for Solubility: deionized water to saturation, 25° C., HPLC condition A; for Saturation pH: saturated solution in deionized water
Experimental: The S-omeprazole strontium tetrahydrate of the present invention and the S-omeprazole magnesium trihydrate were each dissolved in deionized water to saturation. The water-solubility of each of the saturated solutions was analyzed by HPLC under the previously described condition A and the amount of each salt hydrate dissolved was measured.

Hygroscopicity test = format: physicochemical; conditions: for Moisture content: exposed
Experimental: The inventive S-omeprazole strontium was exposed in the naked state at 25 to 40° C. and 40 to 90% relative humidity for a period of over 15 days. The moisture contents of the inventive salt measured with a Karl-Fisher titrator at storage time 0, 3, 7 and 15 days are shown in Table 4.

[2] = Heat stability test of the inventive salt; format: physicochemical; conditions: for Amount of titrated S-omeprazole: sealed, 60° C. and 75% relative humidity
Experimental: The salt of Example 1 was stored in the sealed state under a stressed condition of 60° C. and 75% relative humidity, and the remaining amounts of active S-omeprazole after 7, 14, 21 and 28 days were measured by HPLC condition A. The results are shown in Table 5.

SMILES: [Sr+2] [strontium, Strontium]
Safety (rats): no safety problems

SMILES: COc1ccc2nc([S@@+]([O-])Cc3ncc(C)c(OC)c3C)[nH]c2c1 [S-omeprazole strontium tetrahydrate, S-omerprazole strontium tetrahydrate]
Stability on storage [1]: maintain the initial moisture content, purity and crystallinity
Solubility (Water-solubility test; 25 °C, water, thermodynamic from solid, read-out: Solubility): ~17.6 mg/mL
Solubility (Water-solubility test): 17.6 mg/mL
Saturation pH (Water-solubility test): 10.2
Water solubility relative to S-omeprazole magnesium trihydrate (Water-solubility test; times higher than S-omeprazole magnesium trihydrate): at least 10 times
Moisture content (Hygroscopicity test; 40% relative humidity (25° C.), 0 day): 9.0 wt %
Moisture content (Hygroscopicity test; 40% relative humidity (25° C.), 3 days): 8.9 wt %
Moisture content (Hygroscopicity test; 40% relative humidity (25° C.), 7 days): 8.7 wt %
Moisture content (Hygroscopicity test; 40% relative humidity (25° C.), 15 days): 8.8 wt %
Moisture content (Hygroscopicity test; 60% relative humidity (25° C.), 0 day): 9.0 wt %
Moisture content (Hygroscopicity test; 60% relative humidity (25° C.), 3 days): 9.0 wt %
Moisture content (Hygroscopicity test; 60% relative humidity (25° C.), 7 days): 9.2 wt %
Moisture content (Hygroscopicity test; 60% relative humidity (25° C.), 15 days): 9.1 wt %
Moisture content (Hygroscopicity test; 75% relative humidity (40° C.), 0 day): 9.0 wt %
Moisture content (Hygroscopicity test; 75% relative humidity (40° C.), 3 days): 8.9 wt %
Moisture content (Hygroscopicity test; 75% relative humidity (40° C.), 7 days): 9.0 wt %
Moisture content (Hygroscopicity test; 75% relative humidity (40° C.), 15 days): 8.9 wt %
Moisture content (Hygroscopicity test; 90% relative humidity (35° C.), 0 day): 9.0 wt %
Moisture content (Hygroscopicity test; 90% relative humidity (35° C.), 3 days): 9.2 wt %
Moisture content (Hygroscopicity test; 90% relative humidity (35° C.), 7 days): 9.3 wt %
Moisture content (Hygroscopicity test; 90% relative humidity (35° C.), 15 days): 9.2 wt %
Hygroscopicity (Hygroscopicity test; under a highly humid condition): less hygroscopic
Initial moisture content (Hygroscopicity test; under a low humidity condition): maintained
Amount of titrated S-omeprazole ([2]; 7 days): 997 µg/mg
Amount of titrated S-omeprazole ([2]; 14 days): 998 µg/mg
Amount of titrated S-omeprazole ([2]; 21 days): 997 µg/mg
Amount of titrated S-omeprazole ([2]; 28 days): 997 µg/mg
Amount of titrated S-omeprazole ([2]; Initial): 997 µg/mg
Heat stability ([2]; summary of Table 5 (60° C., 75% relative humidity, sealed, up to 28 days)): highly stable

Solubility (Water-solubility test): 1.5 mg/mL
Saturation pH (Water-solubility test): 9.9
SMILES: COc1ccc2[n-]c([S+]([O-])Cc3ncc(C)c(OC)c3C)nc2c1.COc1ccc2[n-]c([S+]([O-])Cc3ncc(C)c(OC)c3C)nc2c1.O.O.O.[Mg+2] (centres unmarked) [Magnesium trihydrate, S-Omeprazole Magnesium Trihydrate, reference compound]
